Reference: ChEMBL document CHEMBL1938367, “Novel potent 2,5-pyrrolidinedione peptidomimetics as aminopeptidase N inhibitors. Design, synthesis and activity evaluation” (Bioorg Med Chem Lett, 2012)

Assays:
[1] = molecular target: T1, Aminopeptidase N (Sus scrofa) (UniProt P15145); test: Ratio of bestatin IC50 to compound IC50 for porcine kidney microsomal aminopeptidase N
T1 sequence (whole entry): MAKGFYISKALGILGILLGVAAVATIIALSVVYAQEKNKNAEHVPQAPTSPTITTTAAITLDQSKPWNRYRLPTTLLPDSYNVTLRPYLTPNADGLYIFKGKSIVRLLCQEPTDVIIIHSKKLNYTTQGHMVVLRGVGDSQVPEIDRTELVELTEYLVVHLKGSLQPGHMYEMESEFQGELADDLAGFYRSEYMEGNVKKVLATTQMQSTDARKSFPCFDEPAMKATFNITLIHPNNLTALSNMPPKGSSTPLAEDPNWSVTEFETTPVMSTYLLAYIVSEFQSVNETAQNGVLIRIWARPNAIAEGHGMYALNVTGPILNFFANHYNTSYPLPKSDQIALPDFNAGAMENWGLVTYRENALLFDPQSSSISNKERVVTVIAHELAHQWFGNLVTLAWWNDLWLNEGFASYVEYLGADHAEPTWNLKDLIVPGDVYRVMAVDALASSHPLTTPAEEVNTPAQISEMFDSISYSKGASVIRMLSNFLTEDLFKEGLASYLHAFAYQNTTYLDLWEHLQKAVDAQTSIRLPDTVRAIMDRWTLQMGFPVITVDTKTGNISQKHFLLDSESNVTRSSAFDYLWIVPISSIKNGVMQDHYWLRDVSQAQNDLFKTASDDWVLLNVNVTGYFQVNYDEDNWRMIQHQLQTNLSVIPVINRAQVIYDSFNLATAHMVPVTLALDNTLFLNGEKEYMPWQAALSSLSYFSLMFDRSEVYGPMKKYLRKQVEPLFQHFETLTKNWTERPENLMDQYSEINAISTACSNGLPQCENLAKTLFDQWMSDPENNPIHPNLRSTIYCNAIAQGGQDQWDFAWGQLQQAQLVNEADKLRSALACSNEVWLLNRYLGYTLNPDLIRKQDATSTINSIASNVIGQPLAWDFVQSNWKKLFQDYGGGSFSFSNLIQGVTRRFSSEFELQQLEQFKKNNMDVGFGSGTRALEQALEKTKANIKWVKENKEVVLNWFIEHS

[2] = molecular target: T2, Aminopeptidase N (Sus scrofa, UniProt P15145); test: Inhibition of porcine kidney microsomal aminopeptidase N using L-Leu-p-nitroanilide as substrate pre-incubated for 30 mins prior substrate addition by UV-VIS spectrophotometry
T2 sequence (P15145 whole entry): T1 sequence (whole entry)

[3] = system: HL-60; test: Antiproliferative activity against human HL60 cells after 48 hrs by MTT assay; format: functional, cell-based; conditions: HL-60, 48 h
[4] = system: H22; test: Antimetastatic activity against […] H22 cells xenografted in mouse assessed as inhibition of metastasized nodes on lung surface dosed orally 6 days/week for 2 weeks; format: functional

Row | SMILES | IC50 [2] [nM] | also measured
1 | CC(C)C[C@H](NC(=O)[C@@H](O)[C@H](N)Cc1ccccc1)C(=O)N1CCC[C@H]1C(=O)N1CCC[C@H]1C(=O)O | – | Ratio IC50 [1]: 50
2 | NCCCC[C@H](N)C(=O)N[C@H]1CC(=O)N(CC(=O)NO)C1=O | 1000 | –
3 | Cl.N[C@@H](Cc1ccccc1)C(=O)N[C@H]1CC(=O)N(CC(=O)NO)C1=O | 1000 | IC50 [3]: 149000 nM; inhibition (INH) [4]: 54.21%; Ratio IC50 [1]: 2.4
4 | C[C@H](N)C(=O)N[C@H]1CC(=O)N(CC(=O)NO)C1=O | 1000 | –
5 | NCC(=O)N[C@H]1CC(=O)N(CC(=O)NO)C1=O | 1000 | –
6 | CC(C)C[C@H](NC(=O)[C@@H](O)[C@H](N)Cc1ccccc1)C(=O)O [UBENIMEX] | – | inhibition (INH) [4]: 45.37%
7 | CC[C@@H](C)[C@H](N)C(=O)N[C@H]1CC(=O)N(CC(=O)NO)C1=O | 1000 | –
8 | CC(C)C[C@H](N)C(=O)N[C@H]1CC(=O)N(CC(=O)NO)C1=O | 1000 | –
9 | N[C@@H](Cc1ccc(O)cc1)C(=O)N[C@H]1CC(=O)N(CC(=O)NO)C1=O | 1000 | –
10 | O=C(CN1C(=O)C[C@H](NC(=O)[C@@H]2CCCN2)C1=O)NO | 1000 | –
11 | CC(C)[C@H](N)C(=O)N[C@H]1CC(=O)N(CC(=O)NO)C1=O | 1000 | –
